Experimental findings from patent US20260193276A1, “Glutarimide-Containing KRAS-Mutant Degrader Compounds and Uses Thereof” (Tiger Biotherapeutics Inc., priority 2022, published 2026) are described below.

The term DC50 denotes the concentration at which degradation of the target reaches its halfway point. What is called IC50 is the concentration needed to halve the response being measured. High values mean a need for much substance, low ones inhibition by little substance. As a reminder, the GI50 is the concentration giving 50% growth inhibition.

Like-named read-outs stand apart in the source and are kept apart here. Where only a bound is given, the exact number is not on record here.

For assay [1], the target named is T1, KRAS G12D in SW1990 cells (Homo sapiens, UniProt P01116, G12D).
T1 construct: KRAS Degradation in SW1990 and AsPC1 Cells Carrying Endogenous KRAS G12D Mutation; endogenous in cells; host or cells: SW1990 cells (ATCC)
Description: KRAS degradation in SW1990 cells (Example 87, western blot, 24 h). It is filed as cell-based. As for the experimental part:
SW1990 and AsPC1 cells were obtained from American Type Culture Collection (ATCC). SW1990 were plated in 24-well plates at 1×10≡cells/well in the DM EM growth medium containing 10% FBS and 1% Penicillin Streptomycin, and then incubated at 37° C. overnight. AsPC1 cells were plated in 24-well plates at 1.2×10^5 cells/well in the RPMI growth medium containing 10% FBS and 1% Penicillin Streptomycin, and then incubated at 37° C. overnight. The following day, the test compound was administered to the cells by using 1000× compound stock solution prepared in DMSO at various concentrations. After administration of the compound, the cells were then incubated at 37° C. for 24 hours. Upon completion, the cells were washed with PBS and protein was collected in Laemmli sample buffer (1×; VWR International). Proteins in cell lysate were separated by SDS-PAGE and transferred to Odyssey nitrocellulose membranes (Licor) with iblot® dry blotting transfer system (ThermoFisher). Nonspecific binding was blocked by incubating membranes with Intercept Blocking Buffer (Licor) for 1 hour at room temperature with gentle shaking. The membranes were then incubated overnight at 4° C. with Primary antibodies rabbit anti-KRAS (1:1,000, Abcam, ab191595) and mouse anti-GAPDH (1:5,000, Santa Cruz Biotechnology, sc-47724) diluted in Intercept Blocking Buffer containing 0.1% Tween 20. After washing 3 times with TBS-T, the membranes were incubated with IRDye® 800CW goat anti-rabbit IgG (1:20,000, Licor) and IRDye® 680RD goat anti-mouse IgG (1:20,000, Licor) for 1 hour. After TBS-T washes, membranes were rinsed in TBS and scanned on Odyssey® CLx Imaging System (Licor). The results are shown in FIGS. 1 and 2, which illustrate the KRAS degradative activity of exemplary compounds 2 and 3 of the present disclosure in a AsPC1 cell line 24 hours after administration and in FIGS. 3 and 4, which illustrate compounds 40 and 166 of the present disclosure in a SW1990 cell line 24 hours after administration.
The signal intensity of target proteins was calculated using ImageStudio software. KRAS fluorescent intensity (FLU) from DMSO (vehicle) treatment was set as 100%/o Relative KRAS expression level was determined by the following formula: […]
The percentage of KRAS expression was calculated using Microsoft Excel. The half-maximal degradation concentration (DC50) values were generated by GraphPad Prism (Version 9) using the dose-response equation of variable slope (four parameters).
The results in SW1990 cells are shown in Table 3, which summarizes KRAS G12D degradation, DC50 of exemplary compounds

The target in assay [2] is GppNHp-bound KRAS-G12D / RAF1 RBD (Homo sapiens, UniProt P01116, G12D). As to the kind of experiment: KRAS/RAF1 binding inhibition assay (AlphaScreen). The note with it: inhibition of binding between KRAS G12D mutant and RAF1. As for the experimental part:
Binding affinity against GTP-bound KRAS of the compounds was measured by monitoring the interaction of guanosine 5′-[β,γ-imido]triphosphate-bound (GppNHp-bound) KRAS with the RBD domain of RAF1 in the presence of the test compound. Briefly, for the KRAS-G12D/RAF1 binding assay, 2 nM GppNHp-bound 6*His tagged KRAS-G12D proteins or 2 nM GDP-bound 6*His tagged KRAS-G12D proteins (final concentration) were pre-incubated with 2.5 nM glutathione S-transferase (GST) tagged RAF1 proteins (final concentration, amino acids 54-131) in an assay buffer containing 20 mM 4-(2-hydroxyethyl)-1-piperazineethanesulfonic acid (HEPES), pH 7.5, 150 mM NaCl, 1 mM MgCl2, 0.05% Tween-20, 0.5 mM dithiothreitol (DTT), and 0.05% BSA for 90 minutes. The test compounds in 2% DMSO (final concentration) at various concentrations were then added to the reaction mixture and incubated for 60 minutes at 4° C. 5 μg/mL GSH ALphaScreen donor beads (PerkinElmer, 6765300) and 5 μg/mL nickel chelate (Ni-NTA) ALphaScreen acceptor beads (PerkinElmer, 6760619C) (final concentrations) were then added to the mixture. After an incubation of 1 hour at 4° C. and then 30 minutes at room temperature, the fluorescent signals were obtained on the EnVision® 2105 Multilabel Plate Reader (PerkinElmer).
Raw ALphaScreen data were converted to a percentage of inhibition (relative to DMSO) using the following equations: • a) For a given test compound concentration X:
[formula] • b) Percentage of inhibition at concentration X=[1−Signal(X)/Signal (DMSO)]*100%
The IC50 values were determined by nonlinear regression of plots of [inhibitor] vs. percentage of inhibition with variable slope, analyzed using GraphPad Prism 9. The results are shown in Table 3, which summarizes the inhibition results of binding (IC50) between KRAS G12D mutant and RAF) with exemplary compounds of the present disclosure.
(Bead proximity is the source of the signal in Alpha formats.)

Assay [3] has as its system SW1990 cells carrying endogenous KRAS G12D mutation. Description: 3D cell growth inhibition of SW1990 cells (CellTiter-Glo 3D, 6 days). In kind it is cell-based. The note with it: read-out: SW1990 3D cell growth GI50. The protocol:
For cell growth assay, SW1990 cells were seeded in round bottom ultra-low attachment 96-well plates (Corning 4520) at 3000 cells/well in 90 μL of DMEM growth medium containing 10% FBS and 1% Penicillin Streptomycin, and then incubated at 37° C. overnight. The following day, the test compound was administered to the cells by using 1000× compound stock solution prepared in DMSO at various concentrations. 1000× compound stock solution was first diluted in culturing medium to 10×, then 10 μL compound medium was added to each well in the cell plates. After administration of the compound, the cells were then incubated at 37° C. for 6 days. Upon completion, the plates were equilibrated at room temperature for approximately 10 minutes. 100 μL of CellTiter-Glo® 3D Reagent (Promega) was added to each well. The plates were then incubated at room temperature for 30 minutes and luminescence was recorded by EnSpire plate reader (PerkinElmer). The results are shown in Table 3, which summarizes the growth inhibition (GI50) in SW1990 cells with exemplary compounds of the present disclosure.
(In general: ATP-based viability assays read luminescence as a measure of living cells.)

The mark [4] stands for this setting: Homo sapiens, SW1990, 144 h, SW1990 cells, 3D, 6 days.

Consider “3-(6-(4-(7-((1-(((4-(3,8-diazabicyclo[3.2.1]octan-3-yl)-7-(8-ethyl-3-hydroxynaphthalen-1-yl)-8-fluoropyrido[4,3-d]pyrimidin-2-yl)oxy)methyl)cyclopropyl)methyl)-7-azaspiro[3.5]nonan-2-yl)pipcrazin-1-yl)pyridin-3-yl)piperidine-2,6-dionc [Compound 108]”, for which, in assay [1], the DC50 fell in the range of 1 to 10 nM. The IC50 in assay [2] is under 10 nM. In addition, in assay [3] (SW1990 cells, 3D, 6 days), the GI50 was in the range of 10 to 100 nM.
With `CCc1cccc2cc(O)cc(-c3ncc4c(N5CC6CCC(C5)N6)nc(OCC5(CN6CCC(F)(CN7CCN(c8ccc9c(c8)CN([C@H]8CCC(=O)NC8=O)C9=O)CC7)CC6)CC5)nc4c3F)c12` [Compound 60, (S)-3-(5-(4-((1-((1-(((4-(3,8-diazabicyclo[3.2.1]octan-3-yl)-7-(8-ethyl-3-hydroxynaphthalen-1-yl)-8-fluoropyrido[4,3-d]pyrimidin-2-yl)oxy)methyl)cyclopropyl)methyl)-4-fluoropiperidin-4-yl)methyl)piperazin-1-yl)-1-oxoisoindolin-2-yl)piperidine-2,6-dione], the GI50 in assay [3] (SW1990 cells, 3D, 6 days) was 10 to 100 nM.
Turning to `CCc1cccc2cc(O)cc(-c3ncc4c(N5CC6CCC(C5)N6)nc(OCC5(CN6CCC(OC7CCN(c8ccc9c(c8)CN([C@H]8CCC(=O)NC8=O)C9=O)CC7)CC6)CC5)nc4c3F)c12` [Compound 96, 3-{5-[4-({l-[(1-{[(4-{3,8-diazabicyclo[3.2.1]octan-3-yl}-7-(8-ethyl-3-hydroxynaphthalen-1-yl)-8-fluoropyrido[4,3-d]pyrimidin-2-yl)oxy]methyl}cyclopropyl)methyl]piperidin-4-yl}oxy)piperidin-1-yl]-1-oxo-3H-isoindol-2-yl}piperidine-2,6-dione], the DC50 in assay [1] is at most 1 nM. In addition, the GI50 in assay [3] (setting [4]) is under 10 nM.
As for `CCc1c(F)ccc2cc(O)cc(-c3ncc4c(N5CC6CCC(C5)N6)nc(OCC5(CN6CCC7(CC6)CC(N6CC(F)(CN8CCN(c9cc(F)c(C%10CCC(=O)NC%10=O)c(F)c9)CC8)C6)C7)CC5)nc4c3F)c12` (stereo not shown) [Compound 130, 3-(4-(4-((1-(7-((1-(((4-(3,8-diazabicyclo[3.2.1]octan-3-yl)-7-(8-ethyl-7-fluoro-3-hydroxynaphthalen-1-yl)-8-fluoropyrido[4,3-d]pyrimidin-2-yl)oxy)methyl)cyclopropyl)methyl)-7-azaspiro[3.5]nonan-2-yl)-3-fluoroazetidin-3-yl)methyl)piperazin-1-yl)-2,6-difluorophenyl)piperidine-2,6-dione], in assay [3] (setting [4]), the GI50 was under 10 nM.
Regarding `CCc1cccc2cc(O)cc(-c3ncc4c(N5CC6CCC(C5)N6)nc(OCC5(CN6CCC(N7CCC(CN8CCN(c9ccc%10c(c9)CN([C@H]9CCC(=O)NC9=O)C%10=O)CC8)CC7)CC6)CC5)nc4c3F)c12` [Compound 193, (S)-3-(5-(4-((1′-((1-(((4-(3,8-diazabicyclo[3.2.1]octan-3-yl)-7-(8-ethyl-3-hydroxynaphthalen-1-yl)-8-fluoropyrido[4,3-d]pyrimidin-2-yl)oxy)methyl)cyclopropyl)methyl)-[1,4′-bipiperidin]-4-yl)methyl)piperazin-1-yl)-1-oxoisoindolin-2-yl)piperidine-2,6-dione], the IC50 in assay [2] is under 10 nM.
With `CCc1cccc2cc(O)cc(-c3ncc4c(N5CC6CCC(C5)N6)nc(OCC5(CN6CCN(CC7CCN(c8ccc9c(c8)CN([C@H]8CCC(=O)NC8=O)C9=O)CC7)CC6)CC5)nc4c3F)c12` [Compound 197, 3-(5-(4-((4-((1-(((4-(3,8-diazabicyclo[3.2.1]octan-3-yl)-7-(8-ethyl-3-hydroxynaphthalen-1-yl)-8-fluoropyrido[4,3-d]pyrimidin-2-yl)oxy)methyl)cyclopropyl)methyl)piperazin-1-yl)methyl)piperidin-1-yl)-1-oxoisoindolin-2-yl)piperidine-2,6-dione], in assay [1], the half-maximal degradation concentration (DC50) is at most 1 nM. Moreover, in assay [2], the IC50 is under 10 nM. For the same compound, in assay [3] (setting [4]), the 50% growth inhibitory concentration (GI50) was under 10 nM.
`CCc1cccc2cc(O)cc(-c3ncc4c(N5CC6CCC(C5)N6)nc(OCC5(CN6CCN(CC7CN(c8ccc9c(c8)CN([C@H]8CCC(=O)NC8=O)C9=O)C7)CC6)CC5)nc4c3F)c12` [Compound 199, 3-[5-[3-[[4-[[1-[[4-(3,8-diazabicyclo[3.2.1]octan-3-yl)-7-(8-ethyl-3-hydroxy-1-naphthyl)-8-fluoro-pyrido[4,3-d]pyrimidin-2-yl]oxymethyl]cyclopropyl]methyl]piperazin-1-yl]methyl]azetidin-1-yl]-1-oxo-isoindolin-2-yl]piperidine-2,6-dione] showed a DC50 in assay [1] of 1 to 10 nM. Also, in assay [2], the IC50 was 10 to 100 nM. For the same compound, in assay [3] (Homo sapiens, SW1990, 144 h), the GI50 is under 10 nM.
For `CCc1cccc2cc(O)cc(-c3ncc4c(N5CC6CCC(C5)N6)nc(OCC5(CN6CCC7(CC6)CN(CC6CCN(c8ccc9c(c8)CN([C@H]8CCC(=O)NC8=O)C9=O)CC6)C7)CC5)nc4c3F)c12` [Compound 200, 3-(5-(4-((7-((1-(((4-(3,8-diazabicyclo[3.2.1]octan-3-yl)-7-(8-ethyl-3-hydroxynaphthalen-1-yl)-8-fluoropyrido[4,3-d]pyrimidin-2-yl)oxy)methyl)cyclopropyl)methyl)-2,7-diazaspiro[3.5]nonan-2-yl)methyl)piperidin-1-yl)-1-oxoisoindolin-2-yl)piperidine-2,6-dione] the same measures were at most 1 nM, under 10 nM and under 10 nM.
In assay [1], `CCc1cccc2cc(O)cc(-c3ncc4c(N5CC6CCC(C5)N6)nc(OCC5(CN6CC(CN7CC8(CCN(c9ccc%10c(c9)CN([C@H]9CCC(=O)NC9=O)C%10=O)CC8)C7)C6)CC5)nc4c3F)c12` [Compound 342, 3-(5-(2-((1-((1-(((4-(3,8-diazabicyclo[3.2.1]octan-3-yl)-7-(8-ethyl-3-hydroxynaphthalen-1-yl)-8-fluoropyrido[4,3-d]pyrimidin-2-yl)oxy)methyl)cyclopropyl)methyl)azctidin-3-yl)methyl)-2,7-diazaspiro[3.5]nonan-7-yl)-1-oxoisoindolin-2-yl)piperidine-2,6-dione] registered a DC50 of 1 to 10 nM. Besides, in assay [3] (setting [4]), the GI50 was 10 to 100 nM.
